The subject of the assay is TNFα production. Briefly: Inhibition of the production of TNFα in vivo (Test Examples 2 and 2′). The settings on record: Table 9′; Balb/c mice, oral administration 30 minutes before intravenous lipopolysaccharide, plasma TNFα 1 hour after LPS. The method, then:
This test was performed according to the method of Ochalski, et al. [S. J. Ochalski, D. A. Hartman, M. T. Belfast, T. L. Walter, K. B. Glaser and R. P. Carlson; Inhibition of endotoxin-induced hypothermia and serum TNF-α levels in CD-1 mice by various pharmacological agents: Agents Actions 39, C52–C54 (1993)].
The production of TNFα was induced in mice by the intravenous injection of lipopolysaccharide (E. coli O26: B6 origin, Difco) which was prepared to a concentration of 0.045 mg/ml using physiological saline. The saline preparation of lipopolysaccharide was administered at the rate of 10 ml/l kg of body weight into the caudal vein of Balb/c mice (males, age 5–7 weeks, body weight: approx. 22 g, Japan Charles River) which had been fasted overnight starting on the day before the experiment. One hour after administration, the mice were laparotomized under ether anaesthesia and blood was collected from the abdominal vena cava. Blood collection was performed using a 1 ml volume disposable syringe equipped with a 23G needle which had been moistened with heparin on the inside wall. Following blood collection, the blood was immediately transferred to a 1.5 ml volume Eppendorf tube and centrifuged at 4° C. and 14,000 rpm to separate the plasma. This plasma was then stored at −20° C. until measurement of TNFα. The measurement of the amount of TNFα was performed with a commercially available enzyme immunoassay (ELISA) kit (Mouse TNFα ELISA KIT, Genzyme).
To determine the inhibitory activity of the test compounds, each test compound was suspended in a 0.5% tragacanth solution and then administered orally to the Balb/c mice at the rate of 10 ml/1 kg of body weight 30 minutes before injection of lipopolysaccharide. The level of TNFα production was then determined as described above. In the control group, 0.5% tragacanth solution was administered at the rate of 10 ml/1 kg of body weight to the test mice instead of the solutions of the test compounds. A minimum of 3 dose levels of the test compound was administered to groups of 5 test mice for each test compound. The inhibitory rate relative to the control group was calculated for each dose level. From the inhibitory rates and the dosages, ID50 values were calculated by the least squares method.
The production of TNFα was induced in mice by the intravenous injection of lipopolysaccharide (E. coli O26: B6 origin, Difco) which was prepared to a concentration of 0.045 mg/ml using physiological saline. […]
To determine the inhibitory activity of the test compounds, each test compound was suspended in a 0.5% tragacanth solution and then administered orally to the Balb/c mice at the rate of 10 ml/1 kg of body weight 30 minutes before injection of lipopolysaccharide. The level of TNFα production was then determined as described above. […]

`CC1C[C@H]2C=C(c3c[nH]c(-c4ccc(F)cc4)c3-c3ccncc3)CCN2C1` (stereo partly drawn) [Example 16′, 2-(4-Fluorophenyl)-4-[(8aS)-2-methyl-1,2,3,5,6,8a-hexahydroindolizin-7-yl]-3-(pyridin-4-yl)1H-pyrrole]: the “Inhibitory Effect on TNFα Production (in vivo) IC50” value was 0.71 mg/kg.

The values are drawn from patent US7122666B2, “Heteroaryl-substituted pyrrole derivatives, their preparation and their therapeutic uses” (Sankyo Company, Limited, priority 1999, dated 2006).
